The results in this text go back to US20140128605A1, “CRYSTALS OF GLYCINE DERIVATIVE AND PHARMACEUTICAL USE THEREOF” (Toray Industries, Inc., priority 2011, published 2014).

Common to all, as to assay type: physicochemical
Data set [1] can be described thus: Evaluation of moisture absorption (equilibrium moisture regain). The conditions noted are these: for Weight increase: relative humidity increased from 5% to 95%, 25° C. As for the experimental part: • Sample Amount: 5 to 12 mg • Measuring Temperature: 25° C. • Equilibrium Weight/time: 0.01 wt %/5 minutes • Maximum Equilibration Time: 180 minutes • Measurement Range: 5% relative humidity-95% relative humidity-5% relative humidity • Measurement Interval: 5% relative humidity
To evaluate whether the crystal form changes or not, the powder X-ray diffraction measurement was carried out for each crystal of Form A, Form B, Form C, Form D and Form E (hydrate) obtained after the evaluation test of moisture absorption. Only for the Form A crystal, the measurement range (2θ) of the powder X-ray diffraction measurement was changed to 2 to 35°, and the measurement was carried out at 25° C., 90% relative humidity. A humidity generator (HUM-1A; manufactured by Rigaku) was used to control humidity.

A short description of data set [2]: Evaluation of solid-state stability (60° C., four weeks, air-tightly). The conditions noted are these: for Purity [%] Initial value / Purity [%] After 4 weeks: HPLC; for Purity [%] Initial value: before storage; for Purity [%] After 4 weeks / Decomposition product increased by not less than 0.15% after 4 weeks / Crystal form after 4 weeks: stored air-tightly at 60° C. for four weeks; for Crystal form after 4 weeks: powder X-ray diffraction and TG-DTA. How it is done: The amorphous form, and the crystals of Form A, Form B, Form C, Form D and Form E (hydrate) of the subject compound were stored air-tightly at 60° C. for four weeks, and the purities thereof before and after the storage were measured by high performance liquid chromatography (hereinafter referred to as “HPLC”) under the following conditions. The powder X-ray diffraction measurement and TG-DTA were carried out to evaluate whether the crystal forms were changed or not due to the storage. Aqueous sodium dihydrogen phosphate solution in a concentration of 20 mmol/L (hereinafter referred to as “aqueous SDP solution”) used to prepare a mobile phase of HPLC was prepared by adding distilled water (3 L) to weighed sodium dihydrogen phosphate dihydrate (9.36 g) and stirring the resulting solution to dissolve the dihydrate. An analytical sample of HPLC was prepared by weighing and adding each crystal (1.75 mg) of the subject compound to a 10-mL measuring flask respectively; adding acetonitrile (2 mL) thereto to dissolve the crystal; and then adding aqueous SDP solution thereto to a total volume of 10 mL.
• Detection Wavelength: 210 nm • Column: YMC-Pack Pro C18 AS-303 • Mobile Phase A: aqueous SDP solution/acetonitrile=80:20 (v/v) • Mobile Phase B: acetonitrile/aqueous SDP solution=70:30 (v/v) • Composition of Mobile Phase B: 0 to 60 minutes: 0→100% • 60 to 65 minutes: 100%, • 65 to 66 minutes: 100→0%, • 66 to 75 minutes: 0% • Flow rate: 1.0 mL/min • Column Temperature: 40° C. • Amount of Injected Sample: 20 μL

Data set [3] in a line: Storage stability test (accelerated testing) of Form C crystal. The conditions noted are these: 40° C., 75% relative humidity; for Purity [%] Initial value: HPLC, before storage, 6 months column. How it is done: The Form C crystals of the subject compound were stored under acceleration conditions (40° C., 75% relative humidity) air-tightly or under open conditions for six months, and the purities of the crystals before and after the storage were measured by HPLC under conditions below. The powder X-ray diffraction measurement and TG-DTA were carried out to evaluate whether the crystal form was changed or not due to storage.
Phosphate buffer in a concentration of 20 mmol/L (pH 3.9) (hereinafter referred to as “Buffer X”) used to prepare a mobile phase of HPLC was prepared by adding 20 mmol/L of aqueous phosphoric acid solution to 20 mmol/L of aqueous potassium dihydrogen phosphate solution. 20 mmol/L of the aqueous potassium dihydrogen phosphate solution was prepared by adding the weighed potassium dihydrogen phosphate (8.2 g) to distilled water (3 L), and stirring the resulting solution to dissolve the phosphate, and 20 mmol/L of the aqueous phosphoric acid solution was prepared by adding phosphoric acid (1.4 mL) to distilled water (1 L), and mixing the resulting solution under stirring.
Phosphate buffer in a concentration of 20 mmol/L (pH 7.0) (hereinafter referred to as “Buffer Y”) used to prepare an analytical sample of HPLC was prepared by adding 20 mmol/L of aqueous phosphoric acid solution to 20 mmol/L of aqueous dipotassium hydrogen phosphate solution. 20 mmol/L of aqueous dipotassium hydrogen phosphate solution was prepared by adding the weighed dipotassium hydrogen phosphate (3.5 g) to distilled water (1 L), and stirring the resulting solution.
Further, the analytical sample of HPLC was prepared by weighing and adding the Form C crystals of the subject compound (10 mg) to a 50-mL measuring flask, and adding a mixture of Buffer Y and acetonitrile at a ratio of 80:20 to a total amount of 50 mL.
• Detection Wavelength: 210 nm • Column: YMC-Pack Pro C18 • AS12S05-2546WT • Mobile Phase A: buffer X/acetonitrile=80:20 (v/v) • Mobile Phase B: acetonitrile/buffer X=70:30 (v/v) • Composition of Mobile Phase B: 0 to 80 minutes: 0→100% • 80 to 85 minutes: 100% • 85 to 86 minutes: 100→0% • 86 to 95 minutes: 0% • Flow Rate: 1.0 mL/min • Column Temperature: 40° C. • Amount of Injected Sample: 20 μL

Data set [4] in a line: Physical stability of crystal form in solvents. The conditions noted are these: solvents (e.g., toluene, methanol, 2-propanol).
Data set [5] is described as follows: Crystal form after milling (powder X-ray diffraction, TG-DTA). The conditions noted are these: pin milled and jet milled products.

For `CN(c1ccc(/C=C/C[C@H](NC(=O)c2c(Cl)cccc2Cl)C(=O)O)cc1)c1ncccn1` [Form D, (S,E)-2-(2,6-dichlorobenzamido)-5-[4-(methyl-pyrimidin-2-ylamino)phenyl]pent-4-enoic acid], the Weight increase in data set [1] stood at 1.0%. For the same molecule, in data set [2], the “Purity [%] Initial value” worked out at 98.0%, the “Purity [%] After 4 weeks” value is on record as 98.0%, the “Decomposition product increased by not less than 0.15% after 4 weeks” value is “nothing” and the “Crystal form after 4 weeks” value is recorded as “Mixed crystals^2)”.
For `CN(c1ccc(/C=C/C[C@H](NC(=O)c2c(Cl)cccc2Cl)C(=O)O)cc1)c1ncccn1` [Form B, (S,E)-2-(2,6-dichlorobenzamido)-5-[4-(methyl-pyrimidin-2-ylamino)phenyl]pent-4-enoic acid], the Weight increase in data set [1] was 1.9%. In data set [2], the “Purity [%] Initial value” is recorded as 99.8%, the “Purity [%] After 4 weeks” value is listed as 99.8%, the “Decomposition product increased by not less than 0.15% after 4 weeks” value is “nothing” and the “Crystal form after 4 weeks” value is listed as “Form B”.
Take `CN(c1ccc(/C=C/C[C@H](NC(=O)c2c(Cl)cccc2Cl)C(=O)O)cc1)c1ncccn1` [Amorphous, (S,E)-2-(2,6-dichlorobenzamido)-5-[4-(methyl-pyrimidin-2-ylamino)phenyl]pent-4-enoic acid]: in data set [2], the “Purity [%] Initial value” was determined as 95.8%, the “Purity [%] After 4 weeks” value turned out to be 92.0%, the “Decomposition product increased by not less than 0.15% after 4 weeks” value is recorded as 8 different and the “Crystal form after 4 weeks” value is “Amorphous”.
As for `CN(c1ccc(/C=C/C[C@H](NC(=O)c2c(Cl)cccc2Cl)C(=O)O)cc1)c1ncccn1` [Form E, (S,E)-2-(2,6-dichlorobenzamido)-5-[4-(methyl-pyrimidin-2-ylamino)phenyl]pent-4-enoic acid], in data set [1], the Weight increase stood at 0.4%. Moreover, in data set [2], the “Purity [%] Initial value” turned out to be 96.6%, the “Purity [%] After 4 weeks” value is given as 96.9%, the “Decomposition product increased by not less than 0.15% after 4 weeks” value is on record as “nothing” and the “Crystal form after 4 weeks” value is listed as “Form E”.
`CN(c1ccc(/C=C/C[C@H](NC(=O)c2c(Cl)cccc2Cl)C(=O)O)cc1)c1ncccn1` [Form A, (S,E)-2-(2,6-dichlorobenzamido)-5-[4-(methyl-pyrimidin-2-ylamino)phenyl]pent-4-enoic acid]: the “Change in crystal form” value in data set [1] (powder X-ray diffraction after the moisture absorption test) is reported as “changed^2)”. For the same molecule, the Weight increase in data set [1] worked out at 3.4%. For the same molecule, in data set [2], the “Purity [%] Initial value” was found to be 97.3%, the “Purity [%] After 4 weeks” value is recorded as 97.5%, the “Decomposition product increased by not less than 0.15% after 4 weeks” value was “nothing” and the “Crystal form after 4 weeks” value is given as “Form B”.
Consider `CN(c1ccc(/C=C/C[C@H](NC(=O)c2c(Cl)cccc2Cl)C(=O)O)cc1)c1ncccn1` [Form C, (S,E)-2-(2,6-dichlorobenzamido)-5-[4-(methyl-pyrimidin-2-ylamino)phenyl]pent-4-enoic acid], for which, in data set [3] (air-tightly), the “Crystal form after 6 months” value was “Form C”, the “Decomposition product increased by not less than 0.15% after 6 months” value is “Nothing”, the “Purity [%] After 6 months” value is reported as 99.5% and the “Purity [%] Initial value” stood at 99.5%. Moreover, in data set [3] (open condition), the “Crystal form after 6 months” value is listed as “Form C”, the “Decomposition product increased by not less than 0.15% after 6 months” value is “Nothing”, the “Purity [%] After 6 months” value was 99.4% and the “Purity [%] Initial value” was determined as 99.5%. Moreover, in data set [4], the “Transfer of crystal form in solvents” value is “not transferred to the another form”. In data set [2], the “Purity [%] Initial value” amounted to 98.9%, the “Purity [%] After 4 weeks” value came to 98.9%, the “Decomposition product increased by not less than 0.15% after 4 weeks” value is on record as “nothing” and the “Crystal form after 4 weeks” value is given as “Form C”. Further, in data set [5], the “Change in the crystal form due to milling” value is “no change in the crystal form”.
